Data published in patent publication US20080254080A1, “Novel Uses of Calcium Hydroxide” (priority 2004, published 2008).

Tests used:
[1] = tested on: H5N1 virus; conditions: cited from earlier work
[2] = tested on: warts, toe and foot fungus, skin tags; assay: Topical use of hydrated lime; conditions: in vivo
[3] = tested on: different bacterial strains including Bacillus subtilis; conditions: agar diffusion; hydrated spores; cited from earlier work

SMILES	susceptibility of H5N1 virus currently infecting birds in Asia [1]	removal of warts, toe and foot fungus, skin tags [2]	antimicrobial activity compared with the other antimicrobial agents (MTA, Portland cement, Sealapex, Dycal) [3]
NC12CC3CC(CC(C3)C1)C2 [amantadine]	resistant	–	–
[Ca+2].[OH-].[OH-] [calcium hydroxide]	–	shown to remove warts, toe and foot fungus, skin tags	superior
CC(N)C12CC3CC(CC(C3)C1)C2 (stereo not shown) [rimantadine]	resistant	–	–
